Measurements reported in patent EP1056700B1, “MEDICINAL USES OF PHENYLALKANOLS AND DERIVATES” (ZingoTX Pty Ltd, priority 1997, dated 1999).
Several values for one entry are separate records, joined by “and”; a condition that tells them apart may be missing. Identical values can stand only once.

Columns and labels:
Platelet rich plasma = assay: Platelet aggregation: [^3H]-serotonin release from platelet rich plasma, arachidonic acid initiated; type: cell-based; conditions: Homo sapiens, activation by EC50 concentration of arachidonic acid
Protocol: Blood was collected from healthy volunteers who had taken no medication in the previous two weeks. The anticoagulant used was 3.8 % trisodium citrate. Platelet rich plasma was prepared and incubated with [^3H]-serotonin. This was followed by addition of gingerol analogues. Platelet activation was initiated using the EC50 concentration for arachidonic acid. The percentage of [^3H]-serotonin release was measured using a liquid scintillation counter. Then, dose-response curves were established and IC50 values were obtained.

Lipoxygenase (LP) = target: T1, Lipoxygenase (LP) (Rattus norvegicus, UniProt P12527); assay: Lipoxygenase assay with cell-free enzyme from RBL 2H3 cells (EIA); type: biochemical; conditions: final concentration of 10 µM
T1 construct: cell-free enzyme (Wong et al, 1991) prepared from rat basophilic leukemia (RBL) 2H3 cell lines; endogenous in cells; host or cells: RBL 2H3 (rat basophilic leukemia), 15,000 g supernatant of cells disrupted by nitrogen cavitation
T1 sequence (P12527 1-673): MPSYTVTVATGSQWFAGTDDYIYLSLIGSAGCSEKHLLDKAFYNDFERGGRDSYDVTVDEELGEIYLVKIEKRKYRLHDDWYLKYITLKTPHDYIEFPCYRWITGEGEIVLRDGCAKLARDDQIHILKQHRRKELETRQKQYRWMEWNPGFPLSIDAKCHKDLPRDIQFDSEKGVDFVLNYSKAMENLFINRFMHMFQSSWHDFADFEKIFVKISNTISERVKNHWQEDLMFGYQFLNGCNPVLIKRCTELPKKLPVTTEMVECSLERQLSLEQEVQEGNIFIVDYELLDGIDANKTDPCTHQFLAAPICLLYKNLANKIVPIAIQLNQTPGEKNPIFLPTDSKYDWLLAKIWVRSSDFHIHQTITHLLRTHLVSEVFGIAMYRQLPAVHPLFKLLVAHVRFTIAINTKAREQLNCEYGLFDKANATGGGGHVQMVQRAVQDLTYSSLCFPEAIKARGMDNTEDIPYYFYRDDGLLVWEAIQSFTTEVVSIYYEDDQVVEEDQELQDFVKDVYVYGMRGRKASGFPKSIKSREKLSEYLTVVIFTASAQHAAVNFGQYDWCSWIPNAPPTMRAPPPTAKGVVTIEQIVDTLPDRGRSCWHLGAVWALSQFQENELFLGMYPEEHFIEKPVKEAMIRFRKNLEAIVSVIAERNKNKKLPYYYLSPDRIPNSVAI
Protocol: Lipoxygenase (LP) assay was performed with cell-free enzyme (Wong et al, 1991) prepared from rat basophilic leukemia (RBL) 2H3 cell lines. Cells were cultured in EMEM containing 10% fetal calf serum and antibiotic until cells reached confluence. Harvested cells were resuspended in Hepes (10 mM) buffer, pH 7.4, containing 1 mM EDTA at 1 x 10^7 cells/ml, and disrupted by nitrogen cavitation using a Parr bomb at 750 psi for 15 min. The broken cells were centrifuged at 15,000 g for 30 min. Aliquots (0.1 ml) of the supernatant were preincubated with or without drugs in Hepes buffer (10 mM Hepes, pH 7, 1 mM EDTA and 150 mM NaCl) for 5 min, and the reaction was initiated with the addition of 50 µl of CaCl2 (16 mM), 50 µl of ATP (2 mM), 5 µl of PAF (2.5 mg/ml) and 5 µl of AA (2.5 mM). The reaction mixture ([…]) was incubated at room temperature for a further 8 min, then diluted with EIA buffer at 1/200 and 1/2000 dilutions and stored on ice for EIA following the protocol provided with the kit.
Validation of LP enzyme activity was carried out by a UV spectrophotometric method in which the enzyme activity was characterised against various concentrations of Ca^2+, ATP, PAF and AA with the measurement of the formation of diene conjugated products of LP at 235 nm.
All compounds were dissolved in DMSO and assayed at a final concentration of 10 µM. NDGA was used as reference compound. The concentration of DMSO in the assay was maintained at 1.5%.

Cyclo-oxygenase (COX) = assay: Cyclo-oxygenase assay in RBL 2H3 cells (PGD2 EIA); type: cell-based, rat; conditions: final concentration of 10 µM
Protocol: Cyclo-oxygenase (COX) assay was performed with cells in culture prepared from rat basophilic leukemia (RBL) 2H3 cell lines. Cells were cultured in EMEM containing 10% fetal calf serum and antibiotic until cells reached confluence. Harvested cells were subsequently seeded on 24-well plates at 1 x 10^6 cells/ml then incubated at 37°C for 3 hours. Cells were washed twice with incubation buffer (1.5 ml) containing 5 mM Hepes, 140 mM NaCl, 5 mM KCl, 0.6 mM MgCl2, 1 mM CaCl2 and […]. Cells were then covered with 0.49 ml of buffer, followed by addition of samples/solvents (0.005 ml) and incubated at 37 °C for 5 min on an orbital shaker. Arachidonic acid (0.005 ml, containing 50% EtOH) was subsequently added, and the plate was incubated at similar conditions for a further 10 min. The supernatant (0.1 ml) was aliquoted for methoxime derivatisation of PGD2, which was carried out by heating the supernatant with methoxime solution (1:1) at 60 °C for 30 min according to the instructions provided with the kit. The resultant solution was diluted with EIA buffer and stored on ice for EIA, following the protocol provided with the kit.
Validation of COX enzyme activity was carried out using EIA in which the enzyme activity was characterised against various concentrations of AA and a time course of enzyme activity.
[…] Indomethacin was used as reference compound. The concentration of DMSO in the assay was maintained at 1.5%.

DRG neuronal cells = assay: Peak [Ca^2+]i transients in cultured dorsal root ganglion neurons (Fura-2); type: cell-based, rat; conditions: 10 µM applied for 1 min, 2 mM Ca^2+
Protocol: DRG from neonatal (3-5 days old) rat or adult Sprague-Dawley rats were incubated in Hanks CMF saline with 0.05% collagenase and 0.25% trypsin for 25 min at 37° C. Individual cells were obtained by trituration with fire polished Pasteur pipettes of diminishing diameters. Neurones were isolated from the cell suspension in 30% Percoll and then plated on collagen coated coverslips or in 24-well plates, then cultured in neurobasal medium with B27 supplement, 50 ng/ml 2.5 S nerve growth factor, 2 mM 1-glutamine and 100 U/ml penicillin/streptomycin. Cultures were maintained at 37° C with 5% CO2. 30% Percoll increases the percentage of capsaicin-sensitive DRG neurones up to 70%. For peak [Ca^2+]i transients measurements, cells on coverslips were incubated with 5 µM Fura-2 AM for 30 min at 37° C. The coverslips were then mounted on a chamber attached to a fast sample application perfusion system which allows changing solutions in the second range. Recordings were made on the stage of a Nikon Diaphot inverted microscope fitted with a Nikon 40 x Fluo (NA 0.85) DL Ph3 or 40 x Fluo (NA 1.3) oil objective. [Ca^2+]i was calculated from dual excitation wavelength (340/380 nm) fluorescence measurements following an intracellular calibration procedure by the Grynkiewicz equation, using MCID M2/M4 v.3.0 (Imaging Res. Inc.) software. Cells were continuously perfused with a solution consisting of 140 mM NaCl, 2 mM CaCl2, 5 mM KCl, 20 mM HEPES, 10 mM glucose, pH 7.4. To study KCl evoked depolarisation, 50 mM NaCl was replaced by equimolar KCl. Cytoplasmic localisation of Fura-2 was tested with the Mn^2+ quenching technique (Dedov and Roufogalis, 1998). All experiments were performed at room temperature (20-23°C).
Typical changes in [Ca^2+]i upon depolarisation were evoked by 50 mM KCl and by application of 1 µM capsaicin; both were applied for 30 sec. Capsaicin-evoked peak [Ca^2+]i transients are characterised by a fast rise and long-steady state [Ca^2+]i clearance from the cytoplasm. In capsaicin-sensitive cells the half-time of cytoplasmic Ca^2+ clearance was proportional to the amplitudes of peak [Ca^2+]i transients.
To examine the effect of gingerol derivatives, one or several compounds in succession at a concentration of 10 µM were applied for 1 min to the DRG neuronal cells followed by washing out for 4 min with physiological solution. To the capsaicin-sensitive cells, 10 µM capsaicin and 50 mM KCl were applied, respectively, to confirm the viability of the cells. In addition, morphological appearances of the cells were also examined at the end of experiment. […]

[1] = Brine shrimp toxicity bioassay; type: in vivo; conditions: Artemia salina (brine shrimp), in vivo; 24 hours, 2% DMSO
Excerpt: The brine shrimp assay procedure determines LC50 values of active compounds. Activities of a broad range of known active compounds are manifested as toxicity to brine shrimp (Artemia salina Leach). There are many applications of the assay including analysis of toxic substances, anaesthetics, morphine-like substances and cocarcinogenicity of phorbol esters.
The method for testing solvent toxicity used was basically that reported by J L McLaughlin in Methods of Plant Biochemistry (1991), vol. 6 (K Hostettman, ed.), Academic Press, London, 1-32. DMSO solutions of the substances to be tested were added directly to the vials containing the brine shrimp. As the concentration of DMSO that we wished to use was higher than the recommended 1% v/v testing of the toxicity of the DMSO was therefore necessary. The concentrations of DMSO tested on the shrimp, along with the results from the assay which was done in duplicate are listed below.
Brine shrimp toxicity was assayed, except for some minor modifications, according to the method of McLaughlin et al as reported in Brine Shrimp: A convenient bioassay for active plant constituents, B N Meyer, N R Ferrigni, J E Putnam, L B Jacobsen, D E Nichols and J L McLaughlin in Planta Medica (1982), 45, 31-34 and Crown gall tumours on potato discs and brine shrimp lethality: Two simple bioassays for higher plant screening and fractionation. J L McLaughlin. Methods of Plant Biochemistry (1991), vol. 6 (K Hostettman, ed.), Academic Press, London, 1-32. Ten shrimp were transferred to each of the vials and the volume adjusted to 4.9 mL. Each dose was performed in triplicate, including the control. In quick succession, the appropriate volume of additional DMSO for each dose, required to achieve a final concentration of 2%, was added before the appropriate volume of test solution. The vials were gently mixed and the time noted. After 24 hours, the number of survivors were counted and % mortality was determined. The test compounds were assayed at concentrations of 100 µM, 25 µM, 5 µM, 1 µM and 0.2 µM (and where appropriate concentrations of 0.04 µM and 0.008 µM).
The brine shrimp were able to survive without food in the vials over the 24 hour period and were therefore not fed.
The dose-response curves were constructed using the Sigmaplot computer program and the LC50 value was calculated from the intersection point of the curve and the 50 % mortality line. The LC50 values were expressed in both µM and µg/mL.

[2] = test system: brine shrimp (Artemia salina Leach); conditions: values determined by Meyer et al. (1982); cited from earlier work
guinea pig atria = assay: Organ bath assay on isolated guinea pig atria (rate and force of contraction); conditions: result in words, guinea pig atria
Protocol: Male guinea pigs, 3-4 weeks old, were killed by rapid cervical dislocation without induced anaesthesia. Then, the guinea pigs were dissected to isolate the atria which were immediately mounted vertically in an organ bath containing Krebs-Henseleit solution oxygenated with carbogen.
One gram tension was applied to the atria and the base line continuously adjusted until it was stable for 20 mins. The rate and force of contraction were recorded using Mac Lab equipment.
Test substances in DMSO were assayed to a maximum concentration of 50 µM at a final concentration of 2.5 % of DMSO.

rat mesenteric artery = assay: Vasodilation on rat mesenteric small arteries
Excerpt: Small arteries (200-300 µm in diameter) isolated from rat mesentery were precontracted with endothelin prior to addition of the test substances and tested for relaxation.

| Structure (SMILES) | IC50 (Platelet rich plasma) | activity at 10 µM (Lipoxygenase (LP)) | Cyclooxygenase activity % activity (Cyclo-oxygenase (COX)) | Number of capsaicin-sensitive cells responding (DRG neuronal cells) | Peak [Ca^2+]i (Average ±SD) (DRG neuronal cells) | further results |
| --- | --- | --- | --- | --- | --- | --- |
| CC(=O)Oc1ccccc1C(=O)O [Aspirin, reference compound] | 23.4 ± 1.7 µM |  |  |  |  |  |
| CCCCCCCCC(C)(O)CCc1ccc(O)c(OC)c1 (stereo not drawn) [3-methyl-1-(4-hydroxy-3-methoxyphenyl)undecan-3-ol] | 45.3 ± 1.6 µM | 3% | 15% | 0 out of 4 | 0 nM |  |
| COc1cc([C@@H]2c3cc4c(cc3[C@H](O)[C@H]3COC(=O)[C@H]23)OCO4)cc(OC)c1OC [podophyllotoxin, reference compound] |  |  |  |  |  | LC50 at 24 h [1]: 3.8 µM and 1.6 µg/mL; LC50 [2]: 5.8 µM |
| CCCCCCCCCC(=O)CCc1ccc(O)c(OC)c1 [[8]-paradol, 1-(4-hydroxy-3-methoxyphenyl)dodecan-3-one, reference compound] |  | 81% | 11% | 1 | 200 nM | FORCE OF CONTRACT^n (guinea pig atria): inactive; HEART RATE (guinea pig atria): inactive; EC50 (rat mesenteric artery; Rattus norvegicus, relaxation of small arteries (200-300 µm) precontracted with endothelin): 0.05 µM; relaxation of rat mesenteric artery (rat mesenteric artery; result in words): showed potency |
| CCCCCCCCCC(=O)C(O)c1ccc(O)c(OC)c1 (stereo not drawn) [1-hydroxy-1-(4-hydroxy-3-methoxyphenyl)undecan-2-one] | 69.4 ± 2.6 µM | 83% | 16% |  |  |  |
| CCCCCCCCCCC(C)(O)CCc1ccc(O)c(OC)c1 (stereo not drawn) [3-methyl-1-(4-hydroxy-3-methoxyphenyl)tridecan-3-ol] | 75.3 ± 3.1 µM | 5% |  |  |  |  |
